ChEMBL document CHEMBL1143024, “Clavaminols A-F, novel cytotoxic 2-amino-3-alkanols from the ascidian Clavelina phlegraea” (Bioorg Med Chem, 2007)
≈ marks a conversion by molar mass, not a printed value. Calls of active or inactive are those of the source. The calls are words filed in the database; no cut-off is given here.

Tests used:
T47D = assay: Cytotoxicity against human T47D cells after 24 hrs by calcein uptake assay; assay type: functional, cell-based
Jurkat [1] = assay: Cell cycle arrest in human Jurkat cells assessed as accumulation at G1/S phase at 10 ug/mL after 18 hrs […]; assay type: functional, cell-based
AGS = assay: Cytotoxicity against human AGS cells after 24 hrs by calcein uptake assay; assay type: functional, cell-based
Jurkat [2] = assay: Induction of apoptosis in human Jurkat cells assessed as increase in hypodiploid cells at 10 ug/mL after 18 hrs by TUNEL method; assay type: functional
A549 = assay: Cytotoxicity against human A549 cells after 24 hrs by calcein uptake assay; assay type: functional, cell-based

Structure (SMILES) | Activity (T47D) | Activity (Jurkat [1]) | IC50 (AGS) [µg/mL] | Activity (Jurkat [2]) [%] | Activity (A549) | Activity (AGS)
CCCCCCCCC[C@H](O)[C@@H](C)N [CLAVAMINOL A] | Active | Active | 5 (≈ 24.8 µM) | 44.6 | Active | 
CCCCCCCCC[C@H](O)[C@@H](C)NC(C)=O |  |  |  |  |  | inactive
CCCCCCCCC[C@H](OC(C)=O)[C@@H](C)N |  |  |  |  |  | inactive
